Data reported in ChEMBL document CHEMBL1139024, “Synthesis and evaluation of an N-acylated photoactivatable analogue of glutathione as probe for glutathione-utilizing enzymes” (Bioorg Med Chem Lett, 2006).

Test: Inhibition of glutathione S-transferase in rat liver

IC50: 1000 µM
SMILES: O=C(O)CNC(=O)[C@H](CS)NC(=O)CC[C@H](NC(=O)c1ccc(C(=O)c2ccccc2)cc1)C(=O)O
